Test systems include KM-20L2; XF498; SNB-78; DMS-273; LXFL 529; DLD-1; BT-549; HOP-18.
Holding throughout (test): NCI-60 cell line screen, 48 h

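Growth conditions: 96-well plates. Treatment: test compound, 48 hours, 5 concentrations. Analysis: linear interpolation between bracketing concentrations; unreached endpoints set to highest concentration. The concentration for 50% growth inhibition is given as GI50.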 Calls of active or inactive are those of the source. Rule as the data show it: active = GI50 up to about 1.1 µM and inactive = higher.

Regarding `Nc1ccc(C(=O)N/C(=C\c2cccc([N+](=O)[O-])c2)c2nc3ccccc3[nH]2)cc1`, the GI50 was > 87.1 µM (inactive) in the assay on KM-20L2; 23.5 µM (inactive) with XF498; 57.3 µM (inactive) in the assay with SNB-78; 55.2 µM (inactive) in the assay on DMS-273; 29.4 µM (inactive) in the assay on LXFL 529; 66.8 µM (inactive) in the assay on DLD-1.
As for `Cc1ccc(/C=C2\CCCc3ccccc3C2=O)cc1`, in the assay on BT-549, the GI50 is 10.1 µM (inactive).
On the same count and under the same terms, the result for `Nc1cc2c3c(cccc3c1)C(=O)N(c1ccc(OCCN3CCCC3)cc1)C2=O` reads 15.8 µM (inactive); that for `c1ccc(CSc2ccccc2CN2CCN(Cc3ccccc3SCc3ccccc3)CCN(Cc3ccccc3SCc3ccccc3)CC2)cc1`, 1.87 µM (inactive); that for `CC(=O)OCC(OC(C)=O)C1C[C@H]2O[C@@H]3[C@H](C[C@H]2O1)O[C@@]1(C[C@@H]3C)C[C@H](C)[C@@H]2O[C@]3(C[C@@H]2O1)C[C@H]1O[C@H]2[C@H](C)[C@H]4OC(=O)CC5CC[C@H]6OC7[C@H]8O[C@]9(CC[C@H]%10CC(O)(CO)[C@H](CC[C@H]%11C[C@@H](C)C(O)(CO)C(C[C@@H]4O[C@H]2C[C@H]1O3)O%11)O%10)CC8O[C@@H]7[C@@H](O9)[C@H]6O5` (some centres not stated), 0.00185 µM (active).
Turning to `CSc1ncnc2c1cnn2CCCCO`, the GI50 in the assay with BT-549 is > 100 µM (inactive).
On to `O=S1(=O)OC(c2ccc(O)cc2)(c2ccc(O)cc2)c2ccccc21` [PHENOLSULFONPHTHALEIN], for which, in the assay with BT-549, the GI50 was > 100 µM (inactive).
The same measure, in the same setting: to `CC12CP(=O)(c3ccccc3)CC1c1ccccc1C2c1ccccc1` (configuration not stated) belongs > 10 µM (inactive).
Still for that read-out and setting: the result for `Oc1ccc(CCNCc2cc3c(cc2Br)OCO3)cc1` reads 92.5 µM (inactive); that for `O=C(O)CCC(C(=O)O)N1C(=O)C2C3CCC(C3)C2C1=O` (configuration not stated), > 100 µM (inactive).
Same read-out and setting: to `CC(C)N(CC(=O)O)CC(=O)O` belongs > 100 µM (inactive); to `Cc1cc2c(c(S(=O)(=O)c3ccc(Cl)cc3[N+](=O)[O-])c1)NCCC2`, > 100 µM (inactive).
On to `CC(=O)OCC1OC(n2c(N)c(C#N)c(-c3cccc(Cl)c3)c(C#N)c2=S)C(OC(C)=O)C(OC(C)=O)C1OC(C)=O` (configuration not stated), for which the GI50 in the assay on BT-549 was 20.7 µM (inactive).
As for `CC[N+](CC)(CC)Cc1cc2ccccc2n1C(=O)OC`, the GI50 in the assay on KM-20L2, in the assay on XF498, with DMS-273, in the assay on LXFL 529 and with DLD-1 was > 100 µM (inactive) in each case.
Consider `COc1ccc(C(=O)/C=C/c2cc(O)c(O)cc2F)c(OC)c1`, for which, in the assay on BT-549, the GI50 is 6.52 µM (inactive).
On to `O=C(O)C1Cc2ccccc2OC1=O` (configuration not stated), for which, in the assay with BT-549, the GI50 was > 100 µM (inactive).
For the molecule `CC(C)N(C(=O)C12C3C4C1C1C2C3C41C(O)C(C)(C)C)C(C)C` (configuration not stated), the GI50 in the assay with KM-20L2, in the assay with XF498, with SNB-78, with DMS-273 and with LXFL 529 was > 50 µM (inactive) each time.
`CCOC(=O)CCSc1nc2ccc(I)cc2c(=O)n1Cc1ccccc1`: the GI50 in the assay with BT-549 is 35.6 µM (inactive).
On the same count and under the same terms, to `C[N+]1(C)C2CC(OC(=O)C(CO)c3ccccc3)CC1C1OC12` (configuration not stated) belongs > 100 µM (inactive); to `N#CSc1[nH]cnc1C(N)=O`, > 80.7 µM (inactive); to `CC(C)=NN/C(=N\c1ccc(Cl)cc1)NS(=O)(=O)c1cc2ccccc2s1`, 41.9 µM (inactive).
On the same count and under the same terms, the result for `CC(C)CC(Nc1c(O)ccc2ccccc12)C(=O)O` (configuration not stated) reads 19.5 µM (inactive).
`CN(C)CC1CCCC(CN2CCCCC2)C1=O` (configuration not stated): the GI50 with KM-20L2 is 19.6 µM (inactive); in the assay on HOP-18, 2.02 µM (inactive); with SNB-78, 7.71 µM (inactive); with DMS-273 it was 22.1 µM (inactive); in the assay on BT-549 it was 15.2 µM (inactive); in the assay on DLD-1, 2.98 µM (inactive).
For the molecule `CC1(C)O[C@@H](CC/C=C/CO)[C@H](CC/C=C/CO)O1`, the GI50 in the assay on KM-20L2, in the assay with HOP-18, in the assay with XF498, with SNB-78, with DMS-273 and in the assay on LXFL 529 was > 100 µM (inactive) throughout. Moreover, in the assay with DLD-1, the GI50 is > 100 µM (inactive).
For `C=C1C(=O)c2cc3c(cc2C(c2cc(OC)c(OC)c(OC)c2)[C@@H]1C(=O)O)OCO3` (some centres not stated), the GI50 was > 100 µM (inactive) in the assay with HOP-18; 49.1 µM (inactive) in the assay with SNB-78; > 10 µM (inactive) in the assay with DMS-273; 51.5 µM (inactive) in the assay with LXFL 529; 55.3 µM (inactive) in the assay on DLD-1.
Regarding `Cc1ccc(NC(=O)CC2SC(Nc3ccc(Cl)cc3)=NC2=O)cc1C` (configuration not stated), the GI50 is 19.1 µM (inactive) in the assay with KM-20L2; 18.5 µM (inactive) with HOP-18; 21.1 µM (inactive) in the assay with SNB-78; 19.7 µM (inactive) in the assay with DMS-273; 19.5 µM (inactive) in the assay with LXFL 529; 18.9 µM (inactive) in the assay on DLD-1.
Take `CCCc1c(O)c(=O)c2c(OC)cc(OC)c3c4c(OC)cc(OC)c5c(=O)c(O)c(CCC)c(c1c23)c54`: the GI50 in the assay on BT-549 was 0.34 µM (active).
Still for that read-out and setting: the result for `COC(=O)c1ccc(C)cc1CC1Cc2c(C)cccc2C1=O` (configuration not stated) reads 4.99 µM (inactive); that for `O=C1C(=C2SC(c3ccccc3)(c3ccccc3)c3ccccc32)C(=O)c2ccccc21`, > 100 µM (inactive); that for `CC(C)=CC[C@H]1C[C@]2(CC=C(C)C)C(=O)[C@@](CC=C(C)C)(C(=O)C(C(=O)c3ccccc3)=C2O)C1(C)C` [6-EPI-CLUSIANONE], 8.93 µM (inactive).
On the same count and under the same terms, to `O=C1CC(C(OCc2ccccc2)C(OCc2ccccc2)C(OCc2ccccc2)C(COCc2ccccc2)OCc2ccccc2)CC(=O)N1` (configuration not stated) belongs > 100 µM (inactive); to `CC(=O)Nc1ccc2cc(C#N)c(=O)[nH]c2n1`, > 100 µM (inactive); to `CC(=O)OCC1OC(n2c(C)c(/N=N/c3ccccc3)c(C)c(C#N)c2=S)C(OC(C)=O)C(OC(C)=O)C1OC(C)=O` (configuration not stated), 49.3 µM (inactive).
Same read-out and setting: to `O=C(c1ccccc1)c1ccc2nc3n(c2c1)C(c1c(Cl)cccc1Cl)SC3` (configuration not stated) belongs 3.54 µM (inactive).
On to `COC(=O)C(=O)C1(CCC(C)=O)c2ccccc2-c2c(C)ccc(C)c21` (configuration not stated), for which the GI50 was 58.3 µM (inactive) with KM-20L2; 56.4 µM (inactive) in the assay on HOP-18; 19 µM (inactive) with SNB-78; 31.6 µM (inactive) in the assay with DMS-273; 37.8 µM (inactive) with LXFL 529; 50.1 µM (inactive) in the assay with DLD-1.
As for `CC12CC[C@H](O)C(C)(C)[C@H]1CC[C@](C)(O)C2COc1ccc2ccc(=O)oc2c1` (some centres not stated), the GI50 in the assay on KM-20L2 was > 100 µM (inactive); in the assay with HOP-18 it was > 100 µM (inactive); in the assay with XF498, > 100 µM (inactive); in the assay on SNB-78 it was 48.4 µM (inactive); in the assay on DMS-273 it was > 100 µM (inactive); in the assay with LXFL 529, > 100 µM (inactive). Also, the GI50 in the assay with DLD-1 was > 100 µM (inactive).
Turning to `C1=N\CCNCC/N=C\c2ccc(cc2)OCc2cccc(n2)COc2ccc/1cc2`, the GI50 in the assay on BT-549 was 66.4 µM (inactive).
Still for that read-out and setting: the result for `COC(=O)[C@H](Cc1ccccc1)NC(=O)c1ccc(CNC(=O)/C=C/c2ccc(OCc3ccccc3)cc2)cc1` reads 21.5 µM (inactive); that for `NC1CC(=O)c2cc(Br)sc21` (configuration not stated), > 100 µM (inactive); that for `CN(C)c1ccc(C(=C2C=CC(=[N+](C)C)C=C2)c2c(O)c(S(=O)(=O)[O-])cc3cc(S(=O)(=O)O)ccc23)cc1`, > 100 µM (inactive).
The same measure, in the same setting: the result for `O=S(=O)(c1ccccc1)[C@H]1[C@@H]2O[C@@H]2C[C@@H]1O` reads > 100 µM (inactive); that for `CCCC/C=C/C/C=C/CCCCCCCCC(=O)OCC1CCCN2CCCCC12` (configuration not stated), 15.6 µM (inactive).
On to `CCCCCCCCCCCCCC(=O)CC(=O)c1c(O)cccc1O`, for which the GI50 is 47.4 µM (inactive) in the assay on KM-20L2; 33.3 µM (inactive) in the assay with HOP-18; 24.5 µM (inactive) in the assay on XF498; 32.3 µM (inactive) with SNB-78; 22.1 µM (inactive) with DMS-273; 35.2 µM (inactive) with LXFL 529. Also, the GI50 with DLD-1 is 41.6 µM (inactive).
As to `COc1cc2c(c(OC)c1)C(C)=NC(C)C2` (configuration not stated), in the assay with BT-549, the GI50 was > 100 µM (inactive).
In the case of `O=C1NC(Nc2cccc(Cl)c2)=N/C1=C\c1ccc(Cl)c(Cl)c1`, the GI50 in the assay on BT-549 was 12.4 µM (inactive).
As to `Clc1ccc(C(c2ccc(Cl)cc2)c2ccccn2)cc1`, the GI50 in the assay with KM-20L2 is 14.4 µM (inactive); in the assay on HOP-18, 24.8 µM (inactive); in the assay with XF498 it was 18.2 µM (inactive); with SNB-78, 33.8 µM (inactive); with LXFL 529, 17.7 µM (inactive); in the assay with DLD-1, 20.8 µM (inactive).
For `CCCN/C(N)=N/C#N`, the GI50 in the assay on KM-20L2 is 34.7 µM (inactive); with HOP-18, > 100 µM (inactive); with SNB-78, > 100 µM (inactive); in the assay with DMS-273, 62.1 µM (inactive); in the assay with LXFL 529, 76.6 µM (inactive); in the assay with DLD-1 it was 66.8 µM (inactive).
Turning to `O=c1oc2ccccc2c2nc3ccccc3cc12`, the GI50 in the assay on BT-549 was 51.2 µM (inactive).
With `O=C1Oc2ccccc2C(=O)/C1=C/N1C(=O)CNC1=S`, in the assay with BT-549, the GI50 was > 100 µM (inactive).
For `O=C(/C=C\c1cccc2ccccc12)c1ccc(F)cc1`, the GI50 is 16.6 µM (inactive) with KM-20L2; 14.3 µM (inactive) in the assay with HOP-18; 19.8 µM (inactive) with SNB-78; 15.2 µM (inactive) in the assay on DMS-273; 17.1 µM (inactive) with LXFL 529; 19.1 µM (inactive) with DLD-1.
For the molecule `Cc1cc([C@H](C#N)c2nc3ccccc3s2)nc(Cl)n1`, in the assay on BT-549, the GI50 is 3.94 µM (inactive).
The same measure, in the same setting: the result for `COc1ccc(N2C(=O)CC(C3CC(C(C)(C)C)CCC3=O)C2=O)cc1` (configuration not stated) reads > 100 µM (inactive).
Same read-out and setting: to `CC(C)COC(c1ccc2c(c1)OCO2)C(C)Br` (configuration not stated) belongs 35.5 µM (inactive).
With `N=c1oc2ccc3ccccc3c2cc1C(N)=O`, the GI50 with BT-549 was 89.7 µM (inactive).
Regarding `Nc1ccccc1/N=C/c1cc2cc([N+](=O)[O-])ccc2s1`, in the assay with BT-549, the GI50 is 12.5 µM (inactive).
As for `COc1cccc(C=O)c1C(=O)c1cc(O)ccc1O`, the GI50 in the assay on KM-20L2 is > 100 µM (inactive); in the assay with HOP-18, 25.1 µM (inactive); in the assay with XF498, 44.2 µM (inactive); with SNB-78 it was > 45.9 µM (inactive); with DMS-273 it was > 58.7 µM (inactive); with DLD-1 it was 16.3 µM (inactive).
Consider `CC(C)NCCNC(=O)c1ccccc1Nc1c(Cl)cccc1Cl`, for which the GI50 in the assay with KM-20L2 is 2.73 µM (inactive); in the assay with XF498, 2.92 µM (inactive); with SNB-78 it was 14.6 µM (inactive); in the assay on DMS-273, 13.2 µM (inactive); in the assay on LXFL 529, 16.9 µM (inactive); in the assay on DLD-1 it was 13 µM (inactive).
